According to patent publication US20100267561A1, “HERBICIDAL PYRIDAZINONE DERIVATIVES” (priority 2007, published 2010):

What was measured:
Type in all cases: in vivo
[1] = system: umbrella sedge (Cyperus difformis); experiment: Test B flooded paddy test plant response
Description: (§1) Plant species in the flooded paddy test consisted of rice (Oryza sativa), umbrella sedge (Cyperus difformis), ducksalad (Heteranthera limosa) and barnyardgrass (Echinochloa crus-galli) grown to the 2-leaf stage for testing. At time of treatment, test pots were flooded to 3 cm above the soil surface, treated by application of test compounds directly to the paddy water, and then maintained at that water depth for the duration of the test. Treated plants and controls were maintained in a greenhouse for 13 to 15 days, after which time all species were compared to controls and visually evaluated. Plant response ratings, summarized in Table B, are based on a scale of 0 to 100 where 0 is no effect and 100 is complete control. A dash (-) response means no test result.

[2] = system: barnyardgrass (Echinochloa crus-galli); experiment: Test B flooded paddy test plant response
Description: as §1

[3] = system: ducksalad (Heteranthera limosa); experiment: Test B flooded paddy test plant response
Description: as §1

rice (Oryza sativa) = experiment: Test B flooded paddy test plant response
Description: as §1

[4] = system: giant foxtail (Setaria faberi); experiment: Test A pre-/postemergence plant response
Description: (§2) Seeds of species selected from barnyardgrass (Echinochloa crus-galli), large crabgrass (Digitaria sanguinalis), giant foxtail (Setaria faberi), blackgrass (Alopecurus myosuroides), canarygrass (Phalaris minor), morningglory (Ipomoea coccinea), pigweed (Amaranthus retroflexus), velvetleaf (Abutilon theophrasti), wheat (Triticum aestivum), and corn (Zea mays) were planted into a blend of loam soil and sand and treated preemergence with a directed soil spray using test chemicals formulated in a non-phytotoxic solvent mixture which included a surfactant. At the same time these species were also treated with postemergence applications of test chemicals formulated in the same manner.
(§3) Plants ranged in height from 2 to 10 cm and were in the one- to two-leaf stage for the postemergence treatment. Treated plants and untreated controls were maintained in a greenhouse for approximately 10 days, after which time all treated plants were compared to untreated controls and visually evaluated for injury. Plant response ratings, summarized in Table A, are based on a 0 to 100 scale where 0 is no effect and 100 is complete control. A dash (-) response means no test results.

[5] = system: pigweed (Amaranthus retroflexus); experiment: Test A pre-/postemergence plant response
Description: as §2, §3

[6] = system: wheat (Triticum aestivum); experiment: Test A pre-/postemergence plant response
Description: as §2, §3

[7] = system: large crabgrass (Digitaria sanguinalis); experiment: Test A pre-/postemergence plant response
Description: as §2, §3

[8] = system: morningglory (Ipomoea coccinea); experiment: Test A pre-/postemergence plant response
Description: as §2, §3

[9] = system: velvetleaf (Abutilon theophrasti); experiment: Test A pre-/postemergence plant response
Description: as §2, §3

[10] = system: barnyardgrass (Echinochloa crus-galli); experiment: Test A pre-/postemergence plant response
Description: as §2, §3

corn (Zea mays) = experiment: Test A pre-/postemergence plant response
Description: as §2, §3

[11] = Flood (flooded paddy test), 62 g ai/ha, scale 0 to 100, 0 no effect, 100 complete control
[12] = Flood (flooded paddy test), 250 g ai/ha, scale 0 to 100, 0 no effect, 100 complete control
[13] = Postemergence, 125 g ai/ha, 0 to 100 scale, 0 no effect, 100 complete control
[14] = Postemergence, 500 g ai/ha, 0 to 100 scale, 0 no effect, 100 complete control
[15] = Preemergence, 125 g ai/ha, 0 to 100 scale (0 no effect, 100 complete control)
[16] = Preemergence, 500 g ai/ha, 0 to 100 scale (0 no effect, 100 complete control)
[17] = Flood (flooded paddy test), 125 g ai/ha, scale 0 to 100, 0 no effect, 100 complete control
[18] = Flood, 31 g ai/ha, scale 0 to 100

Cc1cc(-n2cc(Cl)cn2)ccc1-c1c(O)cnn(C)c1=O [Compound 60]
Plant response rating, Sedge, Umbrella [1, 11]: 0 | Plant response rating, Sedge, Umbrella [1, 12]: 0 | Plant response rating, Barnyardgrass [2, 11]: 0 | Plant response rating, Barnyardgrass [2, 12]: 30 | Plant response rating, Ducksalad [3, 11]: 0 | Plant response rating, Ducksalad [3, 12]: 0 | Plant response rating, Rice (rice (Oryza sativa); [11]): 0 | Plant response rating, Rice (rice (Oryza sativa); [12]): 30 | Plant response rating, Foxtail, Giant [4, 13]: 50 | Plant response rating, Foxtail, Giant [4, 14]: 80 | Plant response rating, Foxtail, Giant [4, 15]: 80 | Plant response rating, Foxtail, Giant [4, 16]: 100 | Plant response rating, Pigweed [5, 13]: 0 | Plant response rating, Pigweed [5, 14]: 0 | Plant response rating, Pigweed [5, 15]: 0 | Plant response rating, Pigweed [5, 16]: 0 | Plant response rating, Wheat [6, 13]: 0 | Plant response rating, Wheat [6, 14]: 50 | Plant response rating, Wheat [6, 15]: 0 | Plant response rating, Wheat [6, 16]: 50 | Plant response rating, Crabgrass, Large [7, 13]: 20 | Plant response rating, Crabgrass, Large [7, 14]: 60 | Plant response rating, Crabgrass, Large [7, 15]: 20 | Plant response rating, Crabgrass, Large [7, 16]: 80 | Plant response rating, Morningglory [8, 13]: 0 | Plant response rating, Morningglory [8, 14]: 0 | Plant response rating, Morningglory [8, 15]: 0 | Plant response rating, Morningglory [8, 16]: 0 | Plant response rating, Velvetleaf [9, 13]: 0 | Plant response rating, Velvetleaf [9, 14]: 0 | Plant response rating, Velvetleaf [9, 15]: 0 | Plant response rating, Velvetleaf [9, 16]: 0 | Plant response rating, Barnyardgrass [10, 13]: 30 | Plant response rating, Barnyardgrass [10, 14]: 90 | Plant response rating, Barnyardgrass [10, 15]: 70 | Plant response rating, Barnyardgrass [10, 16]: 100 | Plant response rating, Corn (corn (Zea mays); [13]): 40 | Plant response rating, Corn (corn (Zea mays); [14]): 90 | Plant response rating, Corn (corn (Zea mays); [15]): 50 | Plant response rating, Corn (corn (Zea mays); [16]): 90

CCc1cc(-c2ccc(Cl)c(Cl)c2)nn1-c1c(OC(=O)OC(C)C)cnn(C)c1=O [Compound 22]
Plant response rating, Sedge, Umbrella [1, 11]: 0 | Plant response rating, Sedge, Umbrella [1, 17]: 0 | Plant response rating, Sedge, Umbrella [1, 12]: 0 | Plant response rating, Sedge, Umbrella [1, 18]: 0 | Plant response rating, Barnyardgrass [2, 11]: 0 | Plant response rating, Barnyardgrass [2, 17]: 0 | Plant response rating, Barnyardgrass [2, 12]: 0 | Plant response rating, Barnyardgrass [2, 18]: 0 | Plant response rating, Ducksalad [3, 11]: 0 | Plant response rating, Ducksalad [3, 17]: 0 | Plant response rating, Ducksalad [3, 12]: 0 | Plant response rating, Ducksalad [3, 18]: 0 | Plant response rating, Rice (rice (Oryza sativa); [11]): 0 | Plant response rating, Rice (rice (Oryza sativa); [17]): 0 | Plant response rating, Rice (rice (Oryza sativa); [12]): 0 | Plant response rating, Rice (rice (Oryza sativa); [18]): 0 | Plant response rating, Foxtail, Giant [4, 13]: 60 | Plant response rating, Foxtail, Giant [4, 14]: 80 | Plant response rating, Foxtail, Giant [4, 15]: 90 | Plant response rating, Foxtail, Giant [4, 16]: 100 | Plant response rating, Pigweed [5, 13]: 0 | Plant response rating, Pigweed [5, 14]: 0 | Plant response rating, Pigweed [5, 15]: 0 | Plant response rating, Pigweed [5, 16]: 0 | Plant response rating, Wheat [6, 13]: 20 | Plant response rating, Wheat [6, 14]: 60 | Plant response rating, Wheat [6, 15]: 40 | Plant response rating, Wheat [6, 16]: 70 | Plant response rating, Crabgrass, Large [7, 13]: 10 | Plant response rating, Crabgrass, Large [7, 14]: 80 | Plant response rating, Crabgrass, Large [7, 15]: 50 | Plant response rating, Crabgrass, Large [7, 16]: 90 | Plant response rating, Morningglory [8, 13]: 0 | Plant response rating, Morningglory [8, 14]: 0 | Plant response rating, Morningglory [8, 15]: 0 | Plant response rating, Morningglory [8, 16]: 0 | Plant response rating, Velvetleaf [9, 13]: 0 | Plant response rating, Velvetleaf [9, 14]: 0 | Plant response rating, Velvetleaf [9, 15]: 0 | Plant response rating, Velvetleaf [9, 16]: 0 | Plant response rating, Barnyardgrass [10, 13]: 50 | Plant response rating, Barnyardgrass [10, 14]: 90 | Plant response rating, Barnyardgrass [10, 15]: 30 | Plant response rating, Barnyardgrass [10, 16]: 100 | Plant response rating, Corn (corn (Zea mays); [13]): 20 | Plant response rating, Corn (corn (Zea mays); [14]): 90 | Plant response rating, Corn (corn (Zea mays); [15]): 30 | Plant response rating, Corn (corn (Zea mays); [16]): 70

Cc1cc(-c2ccc(C(F)(F)F)cc2)nn1-c1c(O)c(C(F)(F)F)nn(C)c1=O [Compound 42]
Plant response rating, Sedge, Umbrella [1, 11]: 0 | Plant response rating, Sedge, Umbrella [1, 17]: 0 | Plant response rating, Sedge, Umbrella [1, 12]: 0 | Plant response rating, Sedge, Umbrella [1, 18]: 0 | Plant response rating, Barnyardgrass [2, 11]: 0 | Plant response rating, Barnyardgrass [2, 17]: 0 | Plant response rating, Barnyardgrass [2, 12]: 0 | Plant response rating, Barnyardgrass [2, 18]: 0 | Plant response rating, Ducksalad [3, 11]: 0 | Plant response rating, Ducksalad [3, 17]: 0 | Plant response rating, Ducksalad [3, 12]: 0 | Plant response rating, Ducksalad [3, 18]: 0 | Plant response rating, Rice (rice (Oryza sativa); [11]): 0 | Plant response rating, Rice (rice (Oryza sativa); [17]): 0 | Plant response rating, Rice (rice (Oryza sativa); [12]): 0 | Plant response rating, Rice (rice (Oryza sativa); [18]): 0 | Plant response rating, Foxtail, Giant [4, 13]: 0 | Plant response rating, Foxtail, Giant [4, 14]: 10 | Plant response rating, Foxtail, Giant [4, 15]: 0 | Plant response rating, Foxtail, Giant [4, 16]: 0 | Plant response rating, Pigweed [5, 13]: 0 | Plant response rating, Pigweed [5, 14]: 0 | Plant response rating, Pigweed [5, 15]: 0 | Plant response rating, Pigweed [5, 16]: 0 | Plant response rating, Wheat [6, 13]: 0 | Plant response rating, Wheat [6, 14]: 10 | Plant response rating, Wheat [6, 15]: 0 | Plant response rating, Wheat [6, 16]: 0 | Plant response rating, Crabgrass, Large [7, 13]: 0 | Plant response rating, Crabgrass, Large [7, 14]: 0 | Plant response rating, Crabgrass, Large [7, 15]: 0 | Plant response rating, Crabgrass, Large [7, 16]: 0 | Plant response rating, Morningglory [8, 13]: 0 | Plant response rating, Morningglory [8, 14]: 0 | Plant response rating, Morningglory [8, 15]: 0 | Plant response rating, Morningglory [8, 16]: 0 | Plant response rating, Velvetleaf [9, 13]: 0 | Plant response rating, Velvetleaf [9, 14]: 0 | Plant response rating, Velvetleaf [9, 15]: 0 | Plant response rating, Velvetleaf [9, 16]: 0 | Plant response rating, Barnyardgrass [10, 13]: 0 | Plant response rating, Barnyardgrass [10, 14]: 0 | Plant response rating, Barnyardgrass [10, 15]: 0 | Plant response rating, Barnyardgrass [10, 16]: 0 | Plant response rating, Corn (corn (Zea mays); [13]): 20 | Plant response rating, Corn (corn (Zea mays); [14]): 20 | Plant response rating, Corn (corn (Zea mays); [15]): 0 | Plant response rating, Corn (corn (Zea mays); [16]): 0

Cc1nc(-c2ccc(Cl)cc2)nn1-c1c(O)cnn(C)c1=O [Compound 17]
Plant response rating, Sedge, Umbrella [1, 11]: 40 | Plant response rating, Sedge, Umbrella [1, 17]: 40 | Plant response rating, Sedge, Umbrella [1, 12]: 70 | Plant response rating, Sedge, Umbrella [1, 18]: 30 | Plant response rating, Barnyardgrass [2, 11]: 0 | Plant response rating, Barnyardgrass [2, 17]: 0 | Plant response rating, Barnyardgrass [2, 12]: 0 | Plant response rating, Barnyardgrass [2, 18]: 0 | Plant response rating, Ducksalad [3, 11]: 40 | Plant response rating, Ducksalad [3, 17]: 40 | Plant response rating, Ducksalad [3, 12]: 95 | Plant response rating, Ducksalad [3, 18]: 40 | Plant response rating, Rice (rice (Oryza sativa); [11]): 15 | Plant response rating, Rice (rice (Oryza sativa); [17]): 20 | Plant response rating, Rice (rice (Oryza sativa); [12]): 40 | Plant response rating, Rice (rice (Oryza sativa); [18]): 0 | Plant response rating, Foxtail, Giant [4, 13]: 80 | Plant response rating, Foxtail, Giant [4, 14]: 90 | Plant response rating, Foxtail, Giant [4, 15]: 40 | Plant response rating, Foxtail, Giant [4, 16]: 90 | Plant response rating, Pigweed [5, 13]: 0 | Plant response rating, Pigweed [5, 14]: 0 | Plant response rating, Pigweed [5, 15]: 0 | Plant response rating, Pigweed [5, 16]: 0 | Plant response rating, Wheat [6, 13]: 0 | Plant response rating, Wheat [6, 14]: 50 | Plant response rating, Wheat [6, 15]: 20 | Plant response rating, Wheat [6, 16]: 50 | Plant response rating, Crabgrass, Large [7, 13]: 40 | Plant response rating, Crabgrass, Large [7, 14]: 80 | Plant response rating, Crabgrass, Large [7, 15]: 0 | Plant response rating, Crabgrass, Large [7, 16]: 70 | Plant response rating, Morningglory [8, 13]: 0 | Plant response rating, Morningglory [8, 14]: 0 | Plant response rating, Morningglory [8, 15]: 0 | Plant response rating, Morningglory [8, 16]: 0 | Plant response rating, Velvetleaf [9, 13]: 0 | Plant response rating, Velvetleaf [9, 14]: 0 | Plant response rating, Velvetleaf [9, 15]: 0 | Plant response rating, Velvetleaf [9, 16]: 0 | Plant response rating, Barnyardgrass [10, 13]: 50 | Plant response rating, Barnyardgrass [10, 14]: 90 | Plant response rating, Barnyardgrass [10, 15]: 40 | Plant response rating, Barnyardgrass [10, 16]: 100 | Plant response rating, Corn (corn (Zea mays); [13]): 0 | Plant response rating, Corn (corn (Zea mays); [14]): 40 | Plant response rating, Corn (corn (Zea mays); [15]): 0 | Plant response rating, Corn (corn (Zea mays); [16]): 40
